From patent US5593984A, “Cephalosporin derivatives” (Yuhan Corporation, priority 1992, dated 1997)
Converted amounts (≈) assume the structure as drawn.

Key:
Type in all cases: cell-based
Staph. aureus C-5216 = experiment: MIC by agar dilution, Staph. aureus C-5216; details: Staphylococcus aureus, C5216, 17 h, Mueller-Hinton agar, read-out: Minimal Inhibitory Concentration (MIC)
Method in brief: (§1)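 Following inoculation at 10^6 CFU per ml onto agar containing two-fold compound dilutions, plates were incubated 17±1 hours at 35°-37° C.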

[1] = system: Ser. marcescens IFO 12648; experiment: MIC by agar dilution, Ser. marcescens IFO 12648; details: Serratia marcescens, IFO12648, 17 h; Ser. marcescens IFO 12648; agar dilution, Mueller-Hinton agar; read-out: Minimal Inhibitory Concentration (MIC)
Method in brief: as §1

Staph. aureus ATCC 6538P = experiment: MIC by agar dilution, Staph. aureus ATCC 6538P; details: Staphylococcus aureus, ATCC6538P, 17 h; Staph. aureus ATCC 6538P; agar dilution, Mueller-Hinton agar; read-out: Minimal Inhibitory Concentration (MIC)
Method in brief: as §1

M. morganii DY-1 = experiment: MIC by agar dilution, M. morganii DY-1; details: Morganella morganii, DY1, 17 h; M. morganii DY-1; agar dilution, Mueller-Hinton agar; read-out: Minimal Inhibitory Concentration (MIC)
Method in brief: as §1

Ps. aeruginosa DY-2 = experiment: MIC by agar dilution, Ps. aeruginosa DY-2; details: Pseudomonas aeruginosa, DY2, 17 h; Ps. aeruginosa DY-2; agar dilution, Mueller-Hinton agar; read-out: Minimal Inhibitory Concentration (MIC)
Method in brief: as §1

B. subtilis ATCC 6633 = experiment: MIC by agar dilution, B. subtilis ATCC 6633; details: Bacillus subtilis, ATCC6633, 17 h; B. subtilis ATCC 6633; agar dilution, Mueller-Hinton agar; read-out: Minimal Inhibitory Concentration (MIC)
Method in brief: as §1

E. coli DY-1 = experiment: MIC by agar dilution, E. coli DY-1; details: Escherichia coli, DY1, 17 h; E. coli DY-1; agar dilution, Mueller-Hinton agar; read-out: Minimal Inhibitory Concentration (MIC)
Method in brief: as §1

[2] = system: Ps. aeruginosa NCTC 10490; experiment: MIC by agar dilution, Ps. aeruginosa NCTC 10490; details: Pseudomonas aeruginosa, NCTC10490, 17 h, Mueller-Hinton agar, read-out: Minimal Inhibitory Concentration (MIC)
Method in brief: as §1

E. coli NIHJ JC-2 = experiment: MIC by agar dilution, E. coli NIHJ JC-2; details: Escherichia coli, NIHJJC2, 17 h; E. coli NIHJ JC-2; agar dilution, Mueller-Hinton agar; read-out: Minimal Inhibitory Concentration (MIC)
Method in brief: as §1

Staph. aureus C-5113 = experiment: MIC by agar dilution, Staph. aureus C-5113; details: Staphylococcus aureus, C5113, 17 h, Mueller-Hinton agar, read-out: Minimal Inhibitory Concentration (MIC)
Method in brief: as §1

P. vulgaris NCTC 8313 = experiment: MIC by agar dilution, P. vulgaris NCTC 8313; details: Proteus vulgaris, NCTC8313, 17 h; P. vulgaris NCTC 8313; agar dilution, Mueller-Hinton agar; read-out: Minimal Inhibitory Concentration (MIC)
Method in brief: as §1

Ent. aerogenes IFO 12979 = experiment: MIC by agar dilution, Ent. aerogenes IFO 12979; details: Klebsiella aerogenes, IFO12979, 17 h, Mueller-Hinton agar, read-out: Minimal Inhibitory Concentration (MIC)
Method in brief: as §1

K. pneumoniae NCTC 9632 = experiment: MIC by agar dilution, K. pneumoniae NCTC 9632; details: Klebsiella pneumoniae, NCTC9632, 17 h; K. pneumoniae NCTC 9632; agar dilution, Mueller-Hinton agar; read-out: Minimal Inhibitory Concentration (MIC)
Method in brief: as §1

Staph. aureus Smith = experiment: MIC by agar dilution, Staph. aureus Smith; details: Staphylococcus aureus, 17 h, Mueller-Hinton agar, read-out: Minimal Inhibitory Concentration (MIC)
Method in brief: as §1

Prov. stuartii IFO 12930 = experiment: MIC by agar dilution, Prov. stuartii IFO 12930; details: Providencia stuartii, IFO12930, 17 h, Mueller-Hinton agar, read-out: Minimal Inhibitory Concentration (MIC)
Method in brief: as §1

Staph. aureus C-57 = experiment: MIC by agar dilution, Staph. aureus C-57; details: Staphylococcus aureus, C57, 17 h, Mueller-Hinton agar, read-out: Minimal Inhibitory Concentration (MIC)
Method in brief: as §1

E. coli No. 29 = experiment: MIC by agar dilution, E. coli No. 29; details: Escherichia coli, 17 h; E. coli No. 29; agar dilution, Mueller-Hinton agar; read-out: Minimal Inhibitory Concentration (MIC)
Method in brief: as §1

[3] = system: S. epidermidis ATCC 12228; experiment: MIC by agar dilution, S. epidermidis ATCC 12228; details: Staphylococcus epidermidis, ATCC12228, 17 h; S. epidermidis ATCC 12228; agar dilution, Mueller-Hinton agar; read-out: Minimal Inhibitory Concentration (MIC)
Method in brief: as §1

[4] = system: Ps. aeruginosa ATCC 10145; experiment: MIC by agar dilution, Ps. aeruginosa ATCC 10145; details: Pseudomonas aeruginosa, ATCC10145, 17 h, Mueller-Hinton agar, read-out: Minimal Inhibitory Concentration (MIC)
Method in brief: as §1

Ent. cloacae IFO 13535 = experiment: MIC by agar dilution, Ent. cloacae IFO 13535; details: Enterobacter cloacae, IFO13535, 17 h; Ent. cloacae IFO 13535; agar dilution, Mueller-Hinton agar; read-out: Minimal Inhibitory Concentration (MIC)
Method in brief: as §1

Row | MIC (Staph. aureus C-5216) [µg/mL] | MIC [1] [µg/mL] | MIC (Staph. aureus ATCC 6538P) [µg/mL] | MIC (M. morganii DY-1) [µg/mL] | MIC (Ps. aeruginosa DY-2) [µg/mL] | MIC (B. subtilis ATCC 6633) [µg/mL] | MIC (E. coli DY-1) [µg/mL] | MIC [2] [µg/mL] | MIC (E. coli NIHJ JC-2) [µg/mL] | MIC (Staph. aureus C-5113) [µg/mL] | MIC (P. vulgaris NCTC 8313) [µg/mL] | MIC (Ent. aerogenes IFO 12979) [µg/mL] | MIC (K. pneumoniae NCTC 9632) [µg/mL] | MIC (Staph. aureus Smith) [µg/mL] | MIC (Prov. stuartii IFO 12930) [µg/mL] | MIC (Staph. aureus C-57) [µg/mL] | MIC (E. coli No. 29) [µg/mL] | MIC [3] [µg/mL] | MIC [4] [µg/mL] | MIC (Ent. cloacae IFO 13535) [µg/mL] | SMILES
1 | 1.56 (≈ 2.81 µM) | 0.05 (≈ 0.09 µM) | 0.2 (≈ 0.36 µM) | 0.05 (≈ 0.09 µM) | 3.13 (≈ 5.63 µM) | 0.2 (≈ 0.36 µM) | ≤ 0.006 | 0.78 (≈ 1.4 µM) | 0.05 (≈ 0.09 µM) | 1.56 (≈ 2.81 µM) | 0.012 (≈ 0.0216 µM) | 0.025 (≈ 0.045 µM) | 0.05 (≈ 0.09 µM) | 0.39 (≈ 0.702 µM) | 0.05 (≈ 0.09 µM) | 12.5 (≈ 22.5 µM) | ≤ 0.006 | 0.1 (≈ 0.18 µM) | 3.13 (≈ 5.63 µM) | 0.2 (≈ 0.36 µM) | CCO/N=C(\C(=O)N[C@@H]1C(=O)N2C(C(=O)[O-])=C(C[n+]3cc(CC)n4cccc4c3)CS[C@H]12)c1csc(N)n1 [Ex. 38, 7-β-[(Z)-2-(2-aminothiazol-4-yl)-2-ethoxyiminoacetamido]-3-(4-ethylpyrrolo[1,2-a]pyrazinium-2-yl)methyl-3-cephem-4-carboxylate]
2 | 1.56 (≈ 2.8 µM) | ≤ 0.006 | 0.39 (≈ 0.699 µM) | ≤ 0.006 | 6.25 (≈ 11.2 µM) | 0.2 (≈ 0.359 µM) | ≤ 0.006 | 0.2 (≈ 0.359 µM) | ≤ 0.006 | 1.56 (≈ 2.8 µM) | ≤ 0.006 | ≤ 0.006 | ≤ 0.006 | 1.56 (≈ 2.8 µM) | ≤ 0.006 | 50 (≈ 89.7 µM) | ≤ 0.006 | 0.05 (≈ 0.0897 µM) | 0.78 (≈ 1.4 µM) | 0.012 (≈ 0.0215 µM) | CO/N=C(\C(=O)N[C@@H]1C(=O)N2C(C(=O)[O-])=C(C[n+]3cc(C(=O)O)n4cccc4c3)CS[C@H]12)c1csc(N)n1 [Ex. 39, 7-β-[(Z)-2-(2-aminothiazol-4-yl)-2-methoxyiminoacetamido]-3-(4-carboxypyrrolo[1,2-a]pyrazinium-2-yl)methyl-3-cephem-4-carboxylate]
3 | 0.78 (≈ 1.48 µM) | 0.012 (≈ 0.0227 µM) | 0.05 (≈ 0.0948 µM) | 0.012 (≈ 0.0227 µM) | 3.13 (≈ 5.93 µM) | 0.1 (≈ 0.19 µM) | ≤ 0.006 | 0.39 (≈ 0.739 µM) | 0.012 (≈ 0.0227 µM) | 0.78 (≈ 1.48 µM) | 0.012 (≈ 0.0227 µM) | 0.012 (≈ 0.0227 µM) | ≤ 0.006 | 0.2 (≈ 0.379 µM) | ≤ 0.006 | 12.5 (≈ 23.7 µM) | ≤ 0.006 | 0.05 (≈ 0.0948 µM) | 0.78 (≈ 1.48 µM) | 0.025 (≈ 0.0474 µM) | CO/N=C(\C(=O)N[C@@H]1C(=O)N2C(C(=O)[O-])=C(C[n+]3ccn4cccc4c3C)CS[C@H]12)c1csc(N)n1 [Ex. 40, 7-β-[(Z)-2-(2-aminothiazol-4-yl)-2-methoxylminoacetamido]-3-(1-methylpyrrolo[1,2-a]pyrazinium-2-yl)methyl-3-cephem-4-carboxylate]
4 | 1.56 (≈ 2.88 µM) | 0.05 (≈ 0.0923 µM) | 0.2 (≈ 0.369 µM) | 0.025 (≈ 0.0462 µM) | 3.13 (≈ 5.78 µM) | 0.2 (≈ 0.369 µM) | 0.012 (≈ 0.0222 µM) | 0.39 (≈ 0.72 µM) | 0.025 (≈ 0.0462 µM) | 0.78 (≈ 1.44 µM) | ≤ 0.006 | 0.025 (≈ 0.0462 µM) | 0.025 (≈ 0.0462 µM) | 0.39 (≈ 0.72 µM) | 0.012 (≈ 0.0222 µM) | 12.5 (≈ 23.1 µM) | 0.012 (≈ 0.0222 µM) | 0.1 (≈ 0.185 µM) | 1.56 (≈ 2.88 µM) | 0.2 (≈ 0.369 µM) | CCO/N=C(\C(=O)N[C@@H]1C(=O)N2C(C(=O)[O-])=C(C[n+]3ccn4cccc4c3C)CS[C@H]12)c1csc(N)n1 [Ex. 41, 7-β-[(Z)-2-(2-aminothiazol-4-yl)-2-ethoxyiminoacetamido]-3-(1-methylpyrrolo[1,2-a]pyrazinium-2-yl)methyl-3-cephem-4-carboxylate]
